Patent publication US20150196638A1, “SYSTEM AND METHOD FOR USING ULTRASOUND-STIMULATED MICROBUBBLE EXPOSURES TO INDUCE CERAMIDE ACCUMULATION IN ENDOTHELIAL AND TUMOR CELLS” (priority 2012, published 2015)

What was measured:
[1] = test system: asmase +/+ astrocytes; test: Clonogenic survival assay, asmase +/+ astrocytes; format: cell-based, mouse
Description: All cells were grown at 37 degrees Celsius with 5% CO2. Primary astrocytes (obtained from asmase +/+ and asmase −/− mouse brains, Sunnybrook Health Sciences Centre, Toronto, ON) were cultured in DMEM with 10% fetal bovine serum (FBS) and 5% Penicillin. HUVEC cells (Sunnybrook Health Sciences Centre, Toronto, ON, Canada) were grown in EBM-2 (Lonza, Walkersville, Md. USA) supplemented with 10 ml FBS, 0.2 ml Hydrocortisone, 2 ml hFGF-B, 0.5 ml VEGF, 0.5 ml R3-IGF-1, 0.5 ml ascorbic acid, 0.5 ml hEGF, 0.5 ml GA-1000 and 0.5 ml Heparin using EGM-2 singlequots kits. Breast and PC3 cells were grown in 1640-RPMI medium (Sigma-Aldrich Canada Inc., Oakville, ON, Canada), leukemia (AML, Ontario Cancer Institute, Toronto, ON), and KHT sarcoma cells (Sunnybrook Health Science Centre) were grown in α-MEM (Sigma-Aldrich Canada Inc., Oakville, ON), all with 10% FBS and 5% penicillin. In order to harvest adherent cells, confluent flasks were PBS washed, after which 0.05% trypsin EDTA (Gibco, Carlsbad, Calif. USA) was added for 5 minutes to detach cells. After trypsinization, cells were centrifuged at 440 g for 10 minutes and brought to a final cell concentration of 2×10̂6 cells/ml of medium with 1.5 ml aliquots used for each treatment (i.e., 3×10̂6 cells/sample). In all experiments cells were carefully handled to avoid clumping after typrinsization and this was verified by microscopy in advance of ultrasound treatments.
For ultrasound treatments, a pulse was generated by a 2.86 cm-diameter single element transducer (IL0509HP, 500 kHz center frequency, Valpey-Fisher Inc., Hopkinton, Mass., USA) connected to a micro-positioning system. The set-up also included a cylindrical chamber (10 mm diameter) for cell exposure. The chamber had mylar windows on both sides and a magnetic stirrer to mix cells and bubbles during ultrasound exposure in order to avoid standing wave effects.
In order to treat the cells, 50 μL of 45 seconds agitated vial-mix DEFINITY® microbubbles (Perflutren lipid microspheres, Lantheus Medical Imaging, Billerica, Mass. USA) and 1.5 ml of the 2×10̂6 cells/ml solution were added to the chamber (for a 3.3% v/v bubbles concentration). Insonification took place using a peak negative pressure of 570 kPa using a pulse sequence with a 9.6% duty cycle composed of a 16 cycle tone burst and a pulse repetition frequency of 3 kHz, for a total insonification time of 2,880 milliseconds over 30 seconds. The −6 dB beamwidth for this transducer was […] and the −3 dB beamwidth was 18 mm. Transducer characteristics were measured using a calibrated hydrophone in the absence and presence of the treatment set-up.
Sphingosine-1-Phosphate (S1P) (Biomol International L.P., Plymouth Meeting, Pa. USA) was used to counteract the mechanisms leading to ceramide-mediated apoptotic cell death. In order to treat cells, 1 μM S1P was added to asmase +/+ and asmase −/− culture media one hour before damage treatments with radiation or ultrasound, and was present during trypsinization, and for clonogenic survival assays in media. The rationale for this was that any activation of ceramide-dependent cell death by treatment may take many hours to manifest and should be inhibited long term. Treatment of cells with C2-Ceramide (Sigma-Aldrich) was carried out similarly.
Radiation treatments were carried out by exposing samples to X-ray ionizing radiation (Faxitron Cabinet X-ray, Faxitron X-Ray LLC, IL) at a dose rate of 200 cGy/minute. […]

[2] = test system: ceramide in PC3 prostate tumors; test: In vivo ceramide immunohistochemistry staining; parameters: species or system mice; details: 4 μg IV; 2 or 8 Gy with high microbubble concentration
Source text: (A) Quantification of ceramide immunohistochemistry staining of sections of PC3 prostate tumors treated with radiation and/or ultrasound-activated microbubbles. Labels indicate non (Nil), low (Low) and high concentration microbubble exposure (High) and radiation doses (0, 2 or 8 Gy). (B) Quantification of ceramide immunohistochemistry staining for experiments with S1P.
In order to test if ultrasound-stimulated microbubbles in combination with ultrasound could stimulate ceramide formation, experiments were carried out using an additional cohort of 75 animals, with five mice per group. Mice were treated as above with no microbubbles, low, and high bubble concentrations in the presence of ultrasound and combined with 0, 2, and 8 Gy radiation doses given in single fractions as above for nine cohorts of n=5 animals. In addition, 0, 2, and 8 Gy conditions with and without high-concentration microbubble exposure in the presence of ultrasound were carried out in the presence of S1P using modified protocols. This used six cohorts of n=5 mice.
For S1P treatments, 4 μg of S1P in 0.2 mL of PET (5% polyethylene glycol, 2.5% ethanol, and 0.8% Tween-80) was injected intravenously in mice 30 min prior to and 5 min after irradiation or after microbubble exposure with ultrasound and irradiation.

[3] = test system: Human PC3 prostate cancer xenografts; test: ISEL / H&E cell death histology of PC3 xenograft tumors (Example 1); format: in vivo, mice
Description: Human PC3 prostate cancer (ATCC) xenografts were grown in the hind upper leg of SCID-17 mice (Charles River) by injecting 1.0×10̂6 RPMI-1640 media cultured cells subcutaneously (Wisent Biocentre), with 10% characterized serum (HyClone), and 100 U/mL of penicillin/streptomycin (Invitrogen). Tumors were grown to 7-8 mm diameter size before treatment. For treatments, ketamine and xylazine anesthetized mice were used. Vialmix device-prepared DEFINITY® (Lantheus Medical Imaging; N. Billerica, Mass.) microbubbles (perfluoropropane gas/liposome shell) were administered at doses of 3.6×10̂8 microbubbles (L, low dose) and 1.08×10̂9 microbubbles (H, high dose) in […] volumes of prepared bubbles, respectively. The final circulating concentrations were selected to be higher (100- and 300-fold, respectively) than the diagnostic dose used to ensure efficient interactions of the bubbles and microvascular walls.
Mice were immersed in a 37 degree Celsius water bath to permit ultrasound treatment and centered on the tumor. For ultrasound exposures, a focused central frequency 500-kHz transducer (IL0509HP; ValpeyFisher Inc.) with a 28.6-mm transducer element diameter was used. This was attached to a micropositioning system, and excited with sinusoidal wave generated by a waveform generator (AWG520; Tektronix), a pulse-receive power amplifier (RPR4000; Ritec Inc.), and a digital-acquisition system (Acquiris CC103, Agiulent Technologies NY). Tumors were exposed over 50 ms to a 16-cycle tone burst at 500-kHz and 3-kHz pulse repetition frequencies with a 10% duty cycle during the 50-ms window. Treatments were for 5 min, amounting to a 750-ms exposure over 5 min for all mouse treatments, with an average duty cycle of 0.25%. Specifically, at 500 kHz the pulse bandwidth of the 16-cycle tone burst was 0.032 ms. The pulse repetition period (3-KHz pulse repetition frequency) was 0.333,ms, which, over 50 ms, corresponded to 150 periods of 16-cycle tone burst or 4.8 ms (rounded to 5 ms). […] The ultrasound peak negative pressure was 570 kPa measured with a calibrated hydrophone. […]

[4] = test system: HUVEC cells; test: Clonogenic survival assay, HUVEC; format: cell-based; details: 1 μM
Description: All cells were grown at 37 degrees Celsius with 5% CO2. Primary astrocytes (obtained from asmase +/+ and asmase −/− mouse brains, Sunnybrook Health Sciences Centre, Toronto, ON) were cultured in DMEM with 10% fetal bovine serum (FBS) and 5% Penicillin. HUVEC cells (Sunnybrook Health Sciences Centre, Toronto, ON, Canada) were grown in EBM-2 (Lonza, Walkersville, Md. USA) supplemented with 10 ml FBS, 0.2 ml Hydrocortisone, 2 ml hFGF-B, 0.5 ml VEGF, 0.5 ml R3-IGF-1, 0.5 ml ascorbic acid, 0.5 ml hEGF, 0.5 ml GA-1000 and 0.5 ml Heparin using EGM-2 singlequots kits. Breast and PC3 cells were grown in 1640-RPMI medium (Sigma-Aldrich Canada Inc., Oakville, ON, Canada), leukemia (AML, Ontario Cancer Institute, Toronto, ON), and KHT sarcoma cells (Sunnybrook Health Science Centre) were grown in α-MEM (Sigma-Aldrich Canada Inc., Oakville, ON), all with 10% FBS and 5% penicillin. […]
In order to treat the cells, 50 μL of 45 seconds agitated vial-mix DEFINITY® microbubbles (Perflutren lipid microspheres, Lantheus Medical Imaging, Billerica, Mass. USA) and 1.5 ml of the 2×10̂6 cells/ml solution were added to the chamber (for a 3.3% v/v bubbles concentration). […] Transducer characteristics were measured using a calibrated hydrophone in the absence and presence of the treatment set-up. […]

For CCCCCCCCCCCCC/C=C/[C@@H](O)[C@@H](N)COP(=O)(O)O [S1P, Sphingosine-1-Phosphate], the “protective effect on survival” value ([1]; 1 μM, cells treated with either radiation or ultrasound with microbubbles) was “no protective effect”, the “protective effect on survival” value ([1]; 1 μM, ultrasound and microbubbles prior to radiation) was “protection was detected” and the “radioresistance of wild-type astrocytes” value ([1]; S1P-treated, radiation) was “conferred some radioresistance”. For the same compound, the “ceramide increases in the presence of S1P” value [2] was “increases were not apparent”, the “effect on apoptotic cell death induced by microbubbles and radiation” value ([3]; 4 μg IV 30 min before and 5 min after treatments, 0, 2, 8 Gy with or without high microbubbles) was “diminishment of detected apoptotic cell death” and the protection from apoptosis ([4]; radiation or ultrasound and microbubbles, p<0.01) was “significantly protected”.
For CCCCCCCCCCCCC/C=C/[C@@H](O)[C@H](CO)NC(C)=O [C2-Ceramide], the cell kill ([1]; 1 μM) was “no significant cell kill”, the survival ([1]; ceramide alone as a control) was 50±5% and the “survival on ceramide exposure” value [4] was “did not survive”.
“bFGF: basic fibroblast growth factor (Sigma), a known endothelial cell protector” was tested, and the “effect of pre-treatment on microbubble-induced cell death” value ([3]; 0.45 μg IV 1 hour before microbubbles (1% vol/vol) with ultrasound) was “diminished the cell death” and the “cell death, bFGF-treated animals with ultrasound-stimulated microbubbles versus untreated control” value ([3]; 0.45 μg IV, P=0.24) was “no difference”.
